The record followed here is article PMC9781827, “Isolation and Identification of Anti-Inflammatory Peptide from Goose Blood Hydrolysate to Ameliorate LPS-Mediated Inflammation and Oxidative Stress in RAW264.7 Macrophages” (Molecules, 2022).

Values joined by “and” are separate entries in the source; they are usually repeats but may differ in a detail not shown here. Equal entries are not always repeated.

For assay [1], the system named is TNF-α. The assay is described as follows: TNF-α level by ELISA in culture medium, model of LPS-mediated RAW264.7 macrophage inflammation. The format is cell-based. Conditions: LPS group: LPS (1.0 μg/mL) alone, 24 h; mean ± S.D., n = 3. As to the method:
(§1) The anti-inflammatory activity of the peptides was determined according to the methods of a previous study. The anti-inflammatory activity of different fractions was evaluated by measuring the levels of the inflammatory cytokines (TNF-α, IL-1β and IL-6) in a model of LPS-induced macrophage inflammation with ELISA kits (Jiangsu Enzyme marker Biotechnology Co., Ltd., Yancheng, China). […] A 20 mmol/L Tris-HCl (pH 8.0) solution was used as the start buffer and 20 mmol/L Tris-HCl/1 mol/L NaCl (pH 8.0) was used as elution buffer. Elution program: (1) wash with 5 column volumes of starting buffer; (2) elute with 10 column volumes of 50% elution buffer and 50% start buffer; (3) elute with 5 column volumes of 100% elution buffer. The above flow rates were 5 mL/min. The fractions were detected at 280 nm by an ultraviolet detector and collected by an automatic fraction collector.
(§2) The method of RAW264.7 macrophage culture and treatments were based on the study of Li et al.. […] Macrophages from passages 5 to 10 were selected to seed on 96-well culture plates at a density of 4 × 10^5 cells/well and cultured with different concentrations of LPS (0.5 μg/mL, 1.0 μg/mL and 2.0 μg/mL) for 24 h. The optimal concentration of LPS for inducing inflammation in the RAW264.7 macrophage was ensured according to cell viability. […] The ability of GBP to protect RAW264.7 macrophages was evaluated. […]
A general note: In an ELISA, binding on a coated surface is turned into a signal by an enzyme label.

Assay [2] relates to IL-1β. Put plainly: IL-1β level by ELISA in culture medium, model of LPS-mediated RAW264.7 macrophage inflammation. The class given is cell-based. To be noted: LPS group: LPS (1.0 μg/mL) alone, 24 h; mean ± S.D., n = 3. As for the experimental part: as §1, §2

With lipopolysaccharide [LPS], the “level of TNF-α” value in assay [1] is 271.35 ± 17.35 pg/mL and 273.77 ± 11.93 pg/mL. The “level of IL-1β” value in assay [2] was 485.75 ± 50.29 pg/mL.
